Measured values: patent US8481484B2, “Cyclic heptapeptide and use of the same” (National University Corporation Nagoya University, priority 2007, dated 2013)

Tested on: Murine preadipocytes (3T3-L1)
Assay: Fat accumulation in 3T3-L1 preadipocytes during induced differentiation (Triglyceride E-test)
Format: cell-based
Conditions: 3T3-L1, differentiation-inducing medium with test compound, seven days; stated in words, numbers only in FIG. 7
Protocol: Murine preadipocytes (3T3-L1) have such a property as to accumulate fat following differentiation. In the present test, while differentiation of 313-L1 preadipocytes was induced by insulin and the like, test compounds were simultaneously added. Then, an amount of fat in the cells was measured to evaluate that the test compounds exert inhibition of differentiation of the preadipocytes or an inhibitory effect on fat accumulation following differentiation. In this test, in a case where cells die due to the test compounds, there is concern that the test might unintentionally result in a low fat accumulation rate, which is seemingly a favorable result. […] Also, fat accumulation was observed under a microscope from time to time during the test.
Preadipocytes (3T3-L1) were cultured to confluence in the presence of 5% CO2 at 37° C. for two days in 150 μL of culture media (DMEM containing 10% fetal bovine serum (glucose concentration of […])) in two 96-well microplates. Then, with respect to both plates, the culture media were aspirated and replaced with 150 μL of differentiation-inducing media containing a certain concentration of test compounds (DMEM containing 10% fetal bovine serum (glucose concentration of […]) in which 1 μM dexamethasone, 10 μg/mL insulin, and 0.5 mM 3-isobutyl-1-methylxanthine were dissolved). Normally, methanol solution containing a 200-fold concentration of test compounds (1a, 1b, 1c, 1d, and 1e) was prepared, and 7.5 μL of the solution was added with respect to 1.5 mL of the differentiation-inducing media. At this time, a well that was not replaced with the differentiation-inducing medium and a well to which only methanol was added instead of a sample solution were prepared as a control. The plates were cultured in the presence of 5% CO2 at 37° C. for seven days. Thereafter, one plate was served for measurement of an amount of fat, and the other plate was served for measurement of a survival rate.
To each well of the plate for measurement of an amount of fat, 10 μL of 2% Triton X-100 was added, and the plate was left to stand for 30 minutes. Subsequently, the plate was sealed with a sealing tape (a product of Asahi Techno Glass Corporation) and sonicated for one minute in an ultrasonic cleaner. Subsequently, 20 μL of solution was collected from each well and added to a 96-well microplate in which 150 μL of Triglyceride E-test Wako (a product of Wako Pure Chemical Industries, Ltd.), a coloring reagent, had been added to each well, and then the plate was incubated at 37° C. for 30 minutes, after which absorbance (at 630 nm, control at 690 nm) was measured by a plate reader. A ratio of absorbance in a compound-added group to absorbance in a compound-free group was obtained as a percentage, which was provided as a fat accumulation rate. Fat accumulation rates with respect to a concentration in each sample were represented as a semilogarithmic graph. From this graph a compound concentration at which a fat accumulation rate was 50% was read off, which was provided as a 50% effective concentration (EC50). It can be interpreted that the smaller the EC50 value is, the stronger the inhibitory effect on differentiation of adipocytes or on fat accumulation in adipocytes is.

Q: With `CC[C@H](C)[C@H]1NC(=O)[C@@H](COCc2ccccc2)NC(=O)[C@@H](C)N(C)C(=O)[C@H](C)N(C)C(=O)[C@H](CC(C)C)NC(=O)[C@H](CC(C)C)N(C)C(=O)[C@H](C)N(C)C1=O` [1c] as the compound, how does the “EC50 (compound concentration at which the fat accumulation rate is 50%); inhibitory effect on differentiation of adipocytes or on fat accumulation” value read?
A: excellently exerts an inhibitory effect on differentiation of adipocytes or on fat accumulation in adipocytes

Q: `CC[C@H](C)[C@H]1NC(=O)[C@@H](CC(C)C)NC(=O)[C@@H](C)N(C)C(=O)[C@H](C)N(C)C(=O)[C@H](CC(C)C)NC(=O)[C@H](CC(C)C)N(C)C(=O)[C@H](C)N(C)C1=O` [1b] was tested. Which “EC50 (compound concentration at which the fat accumulation rate is 50%); inhibitory effect on differentiation of adipocytes or on fat accumulation” value did it give?
A: excellently exerts an inhibitory effect on differentiation of adipocytes or on fat accumulation in adipocytes

Q: Which “EC50 (compound concentration at which the fat accumulation rate is 50%); inhibitory effect on differentiation of adipocytes or on fat accumulation” value does the source give for `CC[C@H](C)[C@H]1NC(=O)[C@@H]([C@H](C)O)NC(=O)[C@@H](C)N(C)C(=O)[C@H](C)N(C)C(=O)[C@H](CC(C)C)NC(=O)[C@H](CC(C)C)N(C)C(=O)[C@H](C)N(C)C1=O` [1d] here?
A: excellently exerts an inhibitory effect on differentiation of adipocytes or on fat accumulation in adipocytes

Q: How did the “EC50 (compound concentration at which the fat accumulation rate is 50%); inhibitory effect on differentiation of adipocytes or on fat accumulation” value turn out when `CC[C@H](C)[C@H]1NC(=O)[C@@H](CO)NC(=O)[C@@H](C)N(C)C(=O)[C@H](C)N(C)C(=O)[C@H](CC(C)C)NC(=O)[C@H](CC(C)C)N(C)C(=O)[C@H](C)N(C)C1=O` [1e] was run?
A: excellently exerts an inhibitory effect on differentiation of adipocytes or on fat accumulation in adipocytes

Q: For `CC[C@H](C)[C@H]1NC(=O)[C@@H](C)NC(=O)[C@@H](C)N(C)C(=O)[C@H](C)N(C)C(=O)[C@H](CC(C)C)NC(=O)[C@H](CC(C)C)N(C)C(=O)[C@H](C)N(C)C1=O` [1a], which “EC50 (compound concentration at which the fat accumulation rate is 50%); inhibitory effect on differentiation of adipocytes or on fat accumulation” value is on record?
A: excellently exerts an inhibitory effect on differentiation of adipocytes or on fat accumulation in adipocytes
